Results on 1 compound are retold here after patent publication US10745408B2, “Biologically active taxane analogs and methods of treatment by oral administration” (Tapestry Pharmaceuticals, Inc., priority 2007, dated 2020).

In one data set the test system is MDA435s. Kind of data set: MTS proliferation assay, breast MDA435s. The data set is classed as cell-based. As to the method: (§1) MTS Proliferation Assay (Promega)
(§2) Day 1: Cells were plated in appropriate growth medium at 5×10^3 per well in 100 ul in 96 well tissue culture plates, Falcon, one for each drug to be tested. Col 1 was blank; it contained no cells, just medium. The plates were incubated overnight at 37° C., 5% CO2 to allow attachment.
(§3) Day 2: Added 120 ul growth medium in wells of 96-well “dilution plates” (one for each drug) and let sit in 37° C. incubator for about 1 hr.
(§4) Thawed DMSO drug stocks (usually at 10 mM). Each drug was diluted 6 ul into a tube with 3 ml growth medium, to 20 μM.
(§5) Aspirated medium from col 12 of a dilution plate; added 200-300 ul of 20 uM drug to wells of col 12. Made serial dilution down this 96-well plate: for a […] dilution pattern, moved 60 ul from col 12 to col 11, mixed 4-5 times (using 8 place multi-pipettor), moved 60 ul to col 10, etc. stopping at col 3.
(§6) Moved 100 ul of medium+drug from dilution plate to a cell plate, i.e. col 1 from drug plate (blank=no cells) to col 1 of cell plate, etc. up to col 12. Col 2 contained cells with no drug. […]
(§7) Day 4 or 5: Terminated the assay 48 to 72 hrs after drug addition. […] When the color turned dark in control wells (col 2), and was still light in col 12, the absorbance at 490 nm was read on a plate reader; the results were used to calculate IC50.
(Formazan colour is commonly taken as a measure of viable cells.)

The test system of another data set is MESSA/Dox (MDR+). As to the kind of experiment: MTS proliferation assay, uterine MESSA/Dox (MDR+). The format is cell-based. The note with it: Homo sapiens, MES-SA. How it is done: as §1, §2, §3, §4, §5, §6, §7
The subject of the next data set is PC-3. Kind of data set: MTS proliferation assay, prostate PC-3. The format is cell-based. The note with it: Homo sapiens. As to the method:
as §1, §2, §3, §4, §5, §6, §7

For data set [1], the system named is bovine microtubule protein. As to the kind of experiment: In vitro ED50 MT polymerization study (DAPI fluorescence tubulin assay). The note with it: tubulin polymerization, 37° C. 30 minutes, maximum assembly = 25 μM paclitaxel. The format is biochemical. As to the method: In Vitro ED50 MT Polymerization Study
In this tubulin binding assay, microtubule protein (MTP) is used as a substrate. The assay contains bovine tubulin plus microtubule associated proteins (MAP). MTP is polymerized into microtubules in the presence of DAPI (4′,6′-diamidino-2-phenylindole), a fluorescent compound. DAPI binds to tubulin; when microtubules are formed and there is an enhancement of fluorescence. The microtubule formation is measured as a function of time, using a fluorescence plate reader. […] The method used is based on the procedure published by Donna M. Barron, et al, “Fluorescence-based high-throughput assay for antimicrotuble drugs” Analytical Biochemistry, 315: 49-56, 2003, which is incorporated by reference in its entirety. The excitation wavelength, in that assay, was set at 370 nm and the emission wavelength was set at 450 nm for the DAPI experiments.
A Bio-Tek FL 600 microplate Fluorescence Reader was used to measure the relative level of fluorescence in the DAPI assay.
Assays were conducted in 96-well plates. Each well contained a total volume of 0.1 mL consisting of PEM buffer (0.1 M Pipes, 1 mM EGTA, 1 mM MgCl2, pH 6.9), 0.2 mg bovine microtubule protein, and 10 μg of DAPI. […] The final DMSO concentration was 4%. The plates were incubated at 37° C. for 30 minutes and read in a fluorescence plate reader using an excitation wavelength of 360 nm and an emission wavelength of 460 nm. Fluorescence values were corrected for the sample without compound.
Experiments were done twice in triplicate. Results were subsequently combined and fit to a non-linear regression program.

In data set [2] the test system is U251 human CNS tumor cells (glioblastoma). The note with it: for survivors day 100: QD1, 5, 9; for median day of death and median survival time: intravenous, q4d×3. An excerpt:
Tumor Model: Each animal was implanted with one million U251 human CNS tumor cells from an in vitro cell line by ic injection with a 25 gauge needle. The day of tumor implantation (May 24, 2006) was designated as day 0. A sufficient number of mice were implanted so that animals with body weights in a range as narrow as possible were selected for the trial on the day of treatment initiation (day 1 after tumor implantation). Animals were randomly assigned to the treatment groups and individually identified by earmark codes.
A portion of this solution was then diluted with the complete vehicle to achieve the lower dosing concentration of 1.2 mg/mL. […] Temozolomide (Temodar, Schering Corporation) was prepared on each day of injection in Klucel+tween 80 at a concentration of 4 mg/mL. Temozolomide was administered within 5 minutes of formulation on the basis of exact body weight using a volume of 0.2 mL/10 g of body weight.
Data Collection: Animal health surveillance was conducted and mortality data were collected daily. The animals were weighed twice weekly starting with the first day of treatment.
Study Duration: The study was terminated 100 days after tumor implantation. Any animal found moribund or whose body weight dropped below 14 g was euthanized prior to study termination.
Parameters Evaluated: Number of 100-day survivors, median day of death, and the increase in lifespan based on median day of death and expressed as a percentage (% ILS), median survival time and the % ILS based on median survival time.

Data set [3] deals with patients with advanced neoplasms. Kind of data set: Phase 1 Study S-(1)-01 safety, tolerability and anti-neoplastic activity. The data set is classed as in vivo, human. An excerpt: Both trials have enrolled patients with advanced solid tumors, non-Hodgkin's lymphoma or Hodgkin's lymphoma that have recurred or progressed following at least standard therapy; patients with malignancies for which there is no standard therapy; patients who are not candidates for standard therapy; or patients who have chosen not to pursue standard therapy. […] Study S-(1)-01 is currently being conducted in the United States. […] Study S-(1)-02 is currently being conducted in the United States and in Israel.
Treatment cohorts consisted of 3 pts and were expanded to 6 pts in the face of dose-limiting toxicity (DLT); pts could remain on study until the development of progressive disease or an intolerable adverse event. DLT was defined as Gr 4 heme toxicity lasting 7 days; febrile neutropenia, Gr 3 thrombocytopenia with bleeding, Gr 3 elevation of transaminases lasting 7 days or any other Gr 3/4 toxicity other than nausea or vomiting.

Data set [4] can be described thus: Injection formulation administered IV and orally: mouse PK parameters. The data set is classed as in vivo. The note with it: for half-life: read-out: t ½ (converted).
The mark [5] stands for this setting: mouse, in vivo, Oral 10 mg/kg, injection formulation.

Entries after “also recorded” stand apart in the source; their conditions may differ. Like-named read-outs stand apart in the source and are kept apart here.

`C=C[C@H]1O[C@H]2C[C@H]3OC[C@@]3(OC(C)=O)[C@H]3[C@H](OC(=O)c4ccccc4)[C@]4(C(C)(C)O)CC(OC(=O)[C@H](O)C(CC(C)C)NC(=O)OC(C)(C)C)C(C)=C4[C@H](OC(C)=O)[C@H](O1)[C@]23C` (stereo partly drawn) [S-(1)]: in the data set on MDA435s, it took 10 nM to reach half-maximal inhibition (IC50). The IC50 – broadly, the midpoint of a concentration-inhibition curve – with MESSA/Dox (MDR+) came out at 44.8 nM. In the data set with PC-3, the IC50 was found to be 0.03 nM. In data set [1], the EC50 – broadly, the concentration needed to bring the measured effect to its halfway point – amounted to 1580 ± 460 nM. The “survivors day 100” value in data set [2] (S-(1) 12 mg/kg) is 100 = 0). Further, the “median day of death and median survival time” value in data set [2] (S-(1) 12 mg/kg/dose) amounted to 14.5 days. The “survivors day 100” value in data set [2] (S-(1) 20 mg/kg) was 100 = 0). In addition, the “median day of death and median survival time” value in data set [2] (S-(1) 20 mg/kg/dose) is 16 days. For the same compound, the “effect against the U251 human CNS tumor cells (in words)” value in data set [2] (monotherapy or combination as dosed in the study) is on record as “moderate effect”. Moreover, the Dose limiting toxicity result in data set [3] (185 mg/m^2, weekly x3, 28-day cycle) was “Grade 3 sensory neuropathy; also recorded: Grade 3 peripheral neuropathy”. Besides, the “Drug related adverse events” value in data set [3] (7-185 mg/m^2 weekly x3) was “nausea, vomiting, diarrhea, fatigue, anorexia, rash, anemia and peripheral neuropathy”. Also, the anti-neoplastic activity entry in data set [3] (patient with pancreatic cancer) is reported as “Anti-neoplastic activity was seen”. Further, the “dose that can be safely administered” value in data set [3] (weekly×3, heavily pre-treated patients) is “up to 185 mg/m^2”. The same compound had a F in data set [4] (Oral 10 mg/kg vs IV 10 mg/kg) of 47%. Also, in data set [4] (mouse, in vivo, IV 10 mg/kg), the total exposure AUC(0-inf) (in general, the area under the concentration-time curve extrapolated to infinity) amounted to 7.74 µM·h; the AUC(0-t) (usually exposure summed from dosing to a finite time, without extrapolation to infinity) was 6.3 µM·h; the clearance is 24.8 mL/min/kg; the half-life is 6.1 h. Further, in data set [4] (mouse, in vivo, IV 10 mg/kg, read-out: Vdss), the Vd is 13.3 L/kg. For the same compound, in data set [4] (setting [5]), the AUC(0-inf) turned out to be 3.61 µM·h; the area under the curve AUC(0-t) amounted to 3.43 µM·h; the highest concentration (Cmax) (usually the highest concentration seen after dosing) was 460 nM; the Tmax (as a rule, the time at which the peak concentration occurs) came out at 6 h. The half-life in data set [4] (setting [5]) was 5.1 h.
